The values below come from patent US20240238425A1, “HSD17B13 Inhibitors and/or Degraders” (Pfizer Inc., priority 2022, published 2024).

Structures can show the parent of a compound that is named as a salt.

This assay relates to HiBiT-HSD17β13 fusion protein (N-terminal HiBiT-tagged HSD17β13 isoform D) in Huh7 HiBiT-HSD17β13 OE cells. In words: Whole-cell Huh7-HSD17B13 HiBiT assay (degrader potency and maximal efficacy, luminescence readout). The format is cell-based, human. Particulars: 24 hour incubation, geometric mean, * = geometric mean for all forms tested (parent and salt forms); for DC50: read-out: Huh7_HIBIT-HSD17β13_DC50 GMean DC50; for Huh7_HIBIT-HSD17β13_DC50 GMean Asymptote Maximum: max. concentration 1 μM. In a few lines:
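Huh7 cells stably overexpressing N-terminal HiBiT-tagged HSD17β13 isoform D, clone matched to primary hepatocyte expression, were exposed to an 11-point, 1 in 3.162 dilution series (top 1 μM final) for 24 h at 37° C. Lytic HiBiT luminescence was normalised to DMSO and parental-cell controls; DC50 from four-parameter logistic fit, with CellTiter-Glo counter screen.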
For orientation: With HiBiT, luminescence reflects the tagged protein that the partner subunit can reach.

As for `Cc1ccc(C(=O)N2CCN(C3CCN(c4ncc(-c5ccc6cn([C@H]7CC[C@H](CNC(=O)c8cc(F)c(O)c(F)c8F)CC7)nc6c5)cn4)CC3)CC2)cc1N1CCC(=O)NC1=O` [Example 90, N-{[(1r,4r)-4-{6-[2-(4-{4-[3-(2,4-dioxo-1,3-diazinan-1-yl)-4-methylbenzoyl]piperazin-1-yl}piperidin-1-yl)pyrimidin-5-yl]-2H-indazol-2-yl}cyclohexyl]methyl}-2,3,5-trifluoro-4-hydroxybenzamide], the 50% degradation concentration (DC50) (usually the concentration giving 50% degradation) stood at 6.1 nM and the “Huh7_HIBIT-HSD17β13_DC50 GMean Asymptote Maximum” value is listed as 60* %.
For the compound `Cc1ccc(C(=O)N2CCN(CCOc3ncc(-c4ccc5cn(C67CCC(CNC(=O)c8cc(F)c(O)c(F)c8F)(CC6)CC7)nc5c4)cn3)CC2)cc1N1CCC(=O)NC1=O` [Example 91, N-[(4-{6-[2-(2-{4-[3-(2,4-dioxo-1,3-diazinan-1-yl)-4-methylbenzoyl]piperazin-1-yl}ethoxy)pyrimidin-5-yl]-2H-indazol-2-yl}bicyclo[2.2.2]octan-1-yl)methyl]-2,3,5-trifluoro-4-hydroxybenzamide], the DC50 is 3.2 nM and the “Huh7_HIBIT-HSD17β13_DC50 GMean Asymptote Maximum” value is recorded as 73%.
As to `Cc1ccc(C(=O)N2CCC3(CCC(c4nc(-c5ccc6cn([C@H]7CC[C@H](CNC(=O)c8cc(F)c(O)c(F)c8F)CC7)nc6c5)no4)CC3)CC2)cc1N1CCC(=O)NC1=O` [Example 96, N-({(1r,4r)-4-[6-(5-{3-[3-(2,4-dioxo-1,3-diazinan-1-yl)-4-methylbenzoyl]-3-azaspiro[5.5]undecan-9-yl}-1,2,4-oxadiazol-3-yl)-2H-indazol-2-yl]cyclohexyl}methyl)-2,3,5-trifluoro-4-hydroxybenzamide], the DC50 was 2.7 nM and the “Huh7_HIBIT-HSD17β13_DC50 GMean Asymptote Maximum” value amounted to 81%.
Take `O=C1CCN(c2cnn3cc(CCCN4CCN(c5ccc6cn([C@]78CC[C@](CNC(=O)c9cc(F)c(O)c(F)c9F)(CC7)CC8)nc6c5)CC4)ccc23)C(=O)N1` [Example 97, N-({4-[6-(4-{3-[3-(2,4-dioxo-1,3-diazinan-1-yl)pyrazolo[1,5-a]pyridin-6-yl]propyl}piperazin-1-yl)-2H-indazol-2-yl]bicyclo[2.2.2]octan-1-yl}methyl)-2,3,5-trifluoro-4-hydroxybenzamide, trifluoroacetate salt]: the DC50 was 2.4 nM and the “Huh7_HIBIT-HSD17β13_DC50 GMean Asymptote Maximum” value was determined as 76%.
In the case of `O=C1CCN(c2cnn3cc(CCCN4CCN(c5ncc(-c6ccn7cc([C@]89CC[C@](CNC(=O)c%10cc(F)c(O)c(F)c%10F)(CC8)CC9)nc7c6)cn5)CC4)ccc23)C(=O)N1` [Example 99, N-[(4-{7-[2-(4-{3-[3-(2,4-dioxo-1,3-diazinan-1-yl)pyrazolo[1,5-a]pyridin-6-yl]propyl}piperazin-1-yl)pyrimidin-5-yl]imidazo[1,2-a]pyridin-2-yl}bicyclo[2.2.2]octan-1-yl)methyl]-2,3,5-trifluoro-4-hydroxybenzamide, formate salt], the DC50 came out at 1.7 nM and the “Huh7_HIBIT-HSD17β13_DC50 GMean Asymptote Maximum” value came out at 70%.
For `Cc1ccc(C(=O)N2CCC3(CCC(CN4CCN(c5ccc6cn([C@H]7CC[C@H](CNC(=O)c8cc(F)c(O)c(F)c8F)CC7)nc6c5)CC4)CC3)CC2)cc1N1CCC(=O)NC1=O` [Example 103, N-{[(1r,4r)-4-{6-[4-({3-[3-(2,4-dioxo-1,3-diazinan-1-yl)-4-methylbenzoyl]-3-azaspiro[5.5]undecan-9-yl}methyl)piperazin-1-yl]-2H-indazol-2-yl}cyclohexyl]methyl}-2,3,5-trifluoro-4-hydroxybenzamide, trifluoroacetate salt], the half-maximal degradation concentration (DC50) was 1.2 nM and the “Huh7_HIBIT-HSD17β13_DC50 GMean Asymptote Maximum” value is 76%.
With `Cc1ccc(C(=O)N2CCC3(CCC(N4CCN(c5ccc6cn([C@H]7CC[C@H](CNC(=O)c8cc(F)c(O)c(F)c8F)CC7)nc6c5)CC4)CC3)C2)cc1N1CCC(=O)NC1=O` (some centres unmarked) [Example 104, N-({(1r,4r)-4-[6-(4-{2-[3-(2,4-dioxo-1,3-diazinan-1-yl)-4-methylbenzoyl]-2-azaspiro[4.5]decan-8-yl}piperazin-1-yl)-2H-indazol-2-yl]cyclohexyl}methyl)-2,3,5-trifluoro-4-hydroxybenzamide, trifluoroacetate salt], the DC50 was found to be 3.6 nM and the “Huh7_HIBIT-HSD17β13_DC50 GMean Asymptote Maximum” value is reported as 78%.
In the case of `O=C(O)C(F)(F)F.O=C1CCN(c2cnn3cc(CCCN4CCN(c5ncc(-c6ccc7cn(C89CCC(CNC(=O)c%10cc(F)c(O)c(F)c%10F)(CC8)CC9)nc7c6)cn5)CC4)ccc23)C(=O)N1` [Example 105, N-[(4-{6-[2-(4-{3-[3-(2,4-dioxo-1,3-diazinan-1-yl)pyrazolo[1,5-a]pyridin-6-yl]propyl}piperazin-1-yl)pyrimidin-5-yl]-2H-indazol-2-yl}bicyclo[2.2.2]octan-1-yl)methyl]-2,3,5-trifluoro-4-hydroxybenzamide, trifluoroacetate salt], the DC50 is 1.3 nM and the “Huh7_HIBIT-HSD17β13_DC50 GMean Asymptote Maximum” value is on record as 76%.
The like results for `O=C1CCN(c2cc(C(=O)N3CCN(CC4CCN(c5ncc(-c6ccc7cn([C@H]8CC[C@H](CNC(=O)c9cc(F)c(O)c(F)c9F)CC8)nc7c6)cn5)CC4)CC3)ccc2Cl)C(=O)N1` [Example 108, N-{[(1r,4r)-4-(6-{2-[4-({4-[4-chloro-3-(2,4-dioxo-1,3-diazinan-1-yl)benzoyl]piperazin-1-yl}methyl)piperidin-1-yl]pyrimidin-5-yl}-2H-indazol-2-yl)cyclohexyl]methyl}-2,3,5-trifluoro-4-hydroxybenzamide] were, in that order, 1.3 nM and 80%.
Turning to `Cc1ccc(C(=O)N2CCC3(CCC(N4CCN(c5ccc6cn([C@H]7CC[C@H](CNC(=O)c8cc(F)c(O)c(F)c8)CC7)nc6c5)CC4)CC3)CC2)cc1N1CCC(=O)NC1=O` [Example 109, N-({(1r,4r)-4-[6-(4-{3-[3-(2,4-dioxo-1,3-diazinan-1-yl)-4-methylbenzoyl]-3-azaspiro[5.5]undecan-9-yl}piperazin-1-yl)-2H-indazol-2-yl]cyclohexyl}methyl)-3,5-difluoro-4-hydroxybenzamide], the DC50 is 1.1 nM and the “Huh7_HIBIT-HSD17β13_DC50 GMean Asymptote Maximum” value came out at 81%.
In the case of `O=C1CCN(c2cc(C(=O)N3CCC4(CCC(N5CCN(c6ccc7cn([C@H]8CC[C@H](CNC(=O)c9cc(F)c(O)c(F)c9)CC8)nc7c6)CC5)CC4)CC3)ccc2Cl)C(=O)N1` [Example 110, N-({(1r,4r)-4-[6-(4-{3-[4-chloro-3-(2,4-dioxo-1,3-diazinan-1-yl)benzoyl]-3-azaspiro[5.5]undecan-9-yl}piperazin-1-yl)-2H-indazol-2-yl]cyclohexyl}methyl)-3,5-difluoro-4-hydroxybenzamide], the half-maximal degradation concentration (DC50) worked out at 2.9 nM and the “Huh7_HIBIT-HSD17β13_DC50 GMean Asymptote Maximum” value was 77%.
As to `Cc1ccc(C(=O)N2CCC3(CCC(N4CCN(c5ccc6cn([C@H]7CC[C@H](CNC(=O)c8cc(F)c(O)c(F)c8F)CC7)nc6c5)CC4)CC3)CC2)cc1N1CCC(=O)NC1=O` [Example 111, N-({(1r,4r)-4-[6-(4-{3-[3-(2,4-dioxo-1,3-diazinan-1-yl)-4-methylbenzoyl]-3-azaspiro[5.5]undecan-9-yl}piperazin-1-yl)-2H-indazol-2-yl]cyclohexyl}methyl)-2,3,5-trifluoro-4-hydroxybenzamide, trifluoroacetate salt], the DC50 was found to be 0.85 nM and the “Huh7_HIBIT-HSD17β13_DC50 GMean Asymptote Maximum” value stood at 80%.
For `Cc1ccc(C(=O)N2CCC3(CCC(n4cc(-c5ccc6cn([C@H]7CC[C@H](CNC(=O)c8cc(F)c(O)c(F)c8F)CC7)nc6c5)cn4)CC3)CC2)cc1N1CCC(=O)NC1=O` [Example 112, N-({(1r,4r)-4-[6-(1-{3-[3-(2,4-dioxo-1,3-diazinan-1-yl)-4-methylbenzoyl]-3-azaspiro[5.5]undecan-9-yl}-1H-pyrazol-4-yl)-2H-indazol-2-yl]cyclohexyl}methyl)-2,3,5-trifluoro-4-hydroxybenzamide, formate salt], the DC50 stood at 0.97 nM and the “Huh7_HIBIT-HSD17β13_DC50 GMean Asymptote Maximum” value was determined as 81%.
The like results for `Cc1ccc(C(=O)N2CCC3(CCC(N4CCN(c5ccc6cn([C@H]7CC[C@H](CNC(=O)c8cc(F)c(O)c(F)c8F)CC7)nc6c5)CC4)C3)CC2)cc1N1CCC(=O)NC1=O` (some centres unmarked) [Example 113, N-({(1r,4r)-4-[6-(4-{8-[3-(2,4-dioxo-1,3-diazinan-1-yl)-4-methylbenzoyl]-8-azaspiro[4.5]decan-2-yl}piperazin-1-yl)-2H-indazol-2-yl]cyclohexyl}methyl)-2,3,5-trifluoro-4-hydroxybenzamide, formate salt] were, in that order, 1.4 nM and 79%.
With `Cc1ccc(C(=O)N2CCC(CN3CCN(c4ncc(-c5ccc6cn(C78CCC(CNC(=O)c9cc(F)c(O)c(F)c9F)(CC7)CC8)nc6c5)cn4)CC3)CC2)cc1N1CCC(=O)NC1=O` [Example 114, N-{[4-(6-{2-[4-({1-[3-(2,4-dioxo-1,3-diazinan-1-yl)-4-methylbenzoyl]piperidin-4-yl}methyl)piperazin-1-yl]pyrimidin-5-yl}-2H-indazol-2-yl)bicyclo[2.2.2]octan-1-yl]methyl}-2,3,5-trifluoro-4-hydroxybenzamide], the DC50 turned out to be 2.6 nM and the “Huh7_HIBIT-HSD17β13_DC50 GMean Asymptote Maximum” value is recorded as 77%.
The like results for `O=C1CCN(c2cnn3cc(CCCN4Cc5ccc(-c6ccc7cn([C@H]8CC[C@H](CNC(=O)c9cc(F)c(O)c(F)c9F)CC8)nc7c6)cc5C4)ccc23)C(=O)N1` [Example 131, N-({(1r,4r)-4-[6-(2-{3-[3-(2,4-dioxo-1,3-diazinan-1-yl)pyrazolo[1,5-a]pyridin-6-yl]propyl}-2,3-dihydro-1H-isoindol-5-yl)-2H-indazol-2-yl]cyclohexyl}methyl)-2,3,5-trifluoro-4-hydroxybenzamide, trifluoroacetate salt] were, in that order, 0.87 nM and 78%.
